Strand notation (5' to 3'): a small letter for the sugar, then the base; units joined by * are phosphorothioate-linked, units joined directly phosphodiester-linked; [ ] holds rarer units or linkages, { } end groups; capitals alone tell only the bases. e = 2'-O-(2-methoxyethyl) (MOE); [5mC] = 5-methylcytosine; d = 2'-deoxy (DNA)
Tests used:
human SGLT2 = target: T1, human SGLT2 (Homo sapiens, UniProt P31639); settings: Xenopus oocytes; cited from earlier work
T1 construct: host or cells: Xenopus oocytes
T1 sequence (P31639 1-672): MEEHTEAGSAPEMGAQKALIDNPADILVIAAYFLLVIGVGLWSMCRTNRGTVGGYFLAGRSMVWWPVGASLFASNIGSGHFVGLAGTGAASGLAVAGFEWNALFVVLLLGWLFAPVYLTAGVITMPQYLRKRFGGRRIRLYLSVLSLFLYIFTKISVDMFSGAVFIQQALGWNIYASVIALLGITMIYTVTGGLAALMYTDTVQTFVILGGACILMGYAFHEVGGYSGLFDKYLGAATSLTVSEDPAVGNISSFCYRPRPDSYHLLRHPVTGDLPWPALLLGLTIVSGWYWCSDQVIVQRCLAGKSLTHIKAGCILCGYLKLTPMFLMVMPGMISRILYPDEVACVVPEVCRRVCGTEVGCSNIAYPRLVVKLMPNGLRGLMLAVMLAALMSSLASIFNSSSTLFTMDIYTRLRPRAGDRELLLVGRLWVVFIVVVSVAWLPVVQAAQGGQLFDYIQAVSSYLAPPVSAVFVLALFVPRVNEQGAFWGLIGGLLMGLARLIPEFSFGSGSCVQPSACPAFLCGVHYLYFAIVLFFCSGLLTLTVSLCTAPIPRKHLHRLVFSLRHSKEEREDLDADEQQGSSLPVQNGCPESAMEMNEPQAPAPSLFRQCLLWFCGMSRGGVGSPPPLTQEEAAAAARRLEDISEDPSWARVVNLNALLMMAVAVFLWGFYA

mouse SGLT2 mRNA [1] = experiment: Mouse SGLT2 mRNA in kidney, wing, gap and total length variations (Table 61); format: in vivo
Description: ISIS 3707171-10-1 MOE gapmer was used as a template to make sequence related oligos with varying motifs. The antisense compounds were designed to target different regions of the mouse or rat SGLT2 nucleic acid, using published sequences (GenBank accession number U29881.1, incorporated herein as SEQ ID NO: 1575, and GenBank accession number AJ292928.1, incorporated herein as SEQ ID NO: 1576, respectively).
The antisense compounds were analyzed for their effect on mouse SGLT2 mRNA levels. Data are ranges taken from three experiments in which mice were dosed twice per week for three weeks with 2.5, 0.5 or 0.1 umol/kg of the above MOE gapmers given by intraperitoneal injection. Mice were sacrificed 48 hours following last administration and evaluated for SGLT2 levels in kidney. SGLT2 mRNA levels were determined by RT, real-time PCR as described by other examples herein. PCR results were normalized to an internal ISIS control.

rat SGLT2 mRNA [2] = experiment: Rat SGLT2 mRNA in kidney, 1-10-1 and 1-10-2 MOE gapmers, Sprague-Dawley rats (Table 63); format: in vivo
From the text: 1-10-1 and 1-10-2 MOE gapmer antisense compounds, provided in Table 62, were designed to target different regions of the mouse or rat SGLT2 RNA. All short antisense compounds in Table 62 are chimeric oligonucleotides (“gapmers”) either 12 or 13 nucleotides in length, composed of a central “gap” segment consisting of ten 2′-deoxynucleotides, which are flanked on the 5′ side by a one-nucleoside “wing” and on the 3′ side by a two or one-nucleotide “wing”. […] All cytidine residues are 5-methylcytidines.
The short antisense compounds were analyzed for their effect on rat SGLT2 mRNA levels. Data are ranges taken from three experiments in which Male Sprague-Dawley rats (170-200 g) were dosed twice per week for three weeks with 450, 150 or 50 nmol/kg of either a 1-10-1 or 1-10-2 MOE gapmer given by intraperitoneal injection. Rats were sacrificed 48 hours following last administration and evaluated for SGLT2 mRNA levels in kidney. Target levels were determined by RT, real-time PCR as described by other examples herein. PCR results were normalized to an internal ISIS control.

mouse SGLT2 mRNA [3] = experiment: Mouse SGLT2 mRNA in kidney, 1-10-1 MOE gapmers, Balb/c mice (Table 65); format: in vivo
Description: The short antisense compounds were analyzed for their effect on mouse SGLT2 mRNA levels. Data was taken from three experiments in which Male 6-week old Balb/c mice were dosed twice per week for two weeks with 450, 150, or 50 nmol/kg of one of the above 1-10-1 MOE gapmers given by intraperitoneal injection. Mice were sacrificed 48 hours following last administration and evaluated for SGLT2 mRNA levels in kidney. Target levels were determined by RT, real-time PCR as described by other examples herein. PCR results were normalized to an internal ISIS control.

rat SGLT2 mRNA [4] = experiment: Rat SGLT2 mRNA in kidney, 1-10-1 gapmers, 250 nmol/kg (Table 66); format: in vivo; settings: 250 nmol/kg i.p. twice per week for three weeks, Sprague-Dawley rat kidney
Description: The effect of the above 1-10-1 gapmers (see Table 64 above) on rat SGLT2 mRNA levels. Data are taken from four experiments in which male Sprague-Dawley rats (170-200 g) were dosed twice per week for three weeks with 250 nmol/kg given by intraperitoneal injection. Rats were sacrificed 48 hours following last administration and evaluated for SGLT2 mRNA levels in kidney. Target levels were determined by RT, real-time PCR as described by other examples herein. PCR results were normalized to an internal ISIS control.

mouse SGLT2 mRNA [5] = experiment: Mouse SGLT2 mRNA in kidney, additional 1-10-1 and 2-8-2 MOE gapmers (Table 68); format: in vivo; settings: Balb/c mouse kidney
mouse SGLT2 mRNA [6] = experiment: Mouse SGLT2 mRNA in kidney, MOE versus Methyleneoxy BNA gapmers (Table 69); format: in vivo; settings: Balb/c mouse kidney
Description: The effect of ISIS 3796921-10-1 MOE gapmer and ISIS 3886252-8-2 MOE gapmer are compared with the effect of ISIS 3921701-10-1 Methyleneoxy BNA Gapmer and ISIS 3921732-8-2 Methyleneoxy BNA Gapmer (see Table 69) on mouse SGLT2 mRNA levels in vivo. Data are taken from three experiments in which male 6-week old Balb/c mice were dosed twice per week for three weeks with 5, 25 and 125 nmol/kg of either the ISIS 3796921-10-1 MOE gapmer or the ISIS 3886252-8-2 MOE gapmer given by intraperitoneal injection. Mice were sacrificed 48 hours following last administration and evaluated for SGLT2 mRNA levels in kidney. Target levels were determined by RT, real-time PCR as described by other examples herein. PCR results were normalized to an internal ISIS control. The data are expressed as percent change (“+” indicates an increase, “−” indicates a decrease) relative to saline treated animals and are illustrated in Table 69.

rat SGLT2 mRNA [7] = experiment: Rat SGLT2 mRNA in kidney, 1-10-1 and 2-8-2 MOE gapmer (Table 70); format: in vivo; settings: Sprague-Dawley rat kidney
Description: The effect of ISIS 3796921-10-1 MOE gapmer and ISIS 388625 MOE 2-8-2 gapmer (see Table 70) on rat SGLT2 mRNA levels in vivo. […] Rats were sacrificed 48 hours following last administration and evaluated for SGLT2 levels in kidney. Target levels were determined by RT, real-time PCR as described by other examples herein. PCR results were normalized to an internal ISIS control.

[8] = Plasma glucose in ZDF rat (Table 71); format: in vivo; settings: ZDF rats, 400 nM/kg i.p. once a week for twelve weeks; compared to PBS and control
Description: (§1) ISIS 388625, 388626 and control oligo ISIS 388628 were analyzed for their effect on ZDF rat plasma glucose levels and HbA1c. The leptin receptor deficient Zucker diabetic fatty (ZDF) rat is a useful model for the investigation of type 2 diabetes. Diabetes develops spontaneously in these male rats at ages 8-10 weeks, and is associated with hyperphagia, polyuria, polydipsia, and impaired weight gain, symptoms which parallel the clinical symptoms of diabetes (Phillips M S, et al., 1996, Nat Genet. 13, 18-19). Six week old ZDF rats were injected intraperitoneally with short antisense compound at a dose of 400 nM/kg once a week for twelve weeks. Data are illustrated in Tables 71 and 72.

[9] = HbA1c status in ZDF rat (Table 72); format: in vivo; settings: ZDF rats, 400 nM/kg i.p. once a week for twelve weeks; compared to PBS and control
Description: as §1

dog SGLT2 mRNA = experiment: Dog SGLT2 mRNA levels in kidney (Table 73); format: in vivo; settings: 1 mg/kg/wk dose
Description: (§2) ISIS 388625 is a 2-8-2 MOE Gapmer with sequence […] (SEQ ID NO: 246) (e.g. see Table 71). The effect of ISIS 388625 on dog SGLT2 mRNA levels. Data are taken from two dosing groups in which a total of nine male beagle dogs were dosed with either one or ten mg/kg/week of ISIS 388625 or saline given by subcutaneous injection twice weekly. On day 46 of the study all dogs were sacrificed and evaluated for SGLT2 levels in kidney. Target levels were determined by quantitative RT, real-time PCR as described by other examples herein. PCR results were normalized to an internal ISIS control.

[10] = Standard glucose tolerance test and urinary glucose excretion in dog; format: in vivo; settings: standard glucose tolerance test, on average, compared to saline controls
Description: as §2
Even greater reduction can be achieved at slightly higher doses. […] Peak plasma glucose levels were decreased by over 50% on average and the subsequent drop in glucose was lessened compared to saline controls in a standard glucose tolerance test.

[11] = 0.1 umol/kg i.p. twice per week for three weeks
[12] = 0.5 umol/kg i.p. twice per week for three weeks

Which transport activity (human SGLT2) does the source give for `O=C(CCc1ccc(O)cc1)c1c(O)cc(O)cc1O[C@@H]1O[C@H](CO)[C@@H](O)[C@H](O)[C@H]1O` [phlorizin] here?
The transport activity was “suppressed”.

Which “% change in SGLT2 expression relative to saline” value (mouse SGLT2 mRNA [1]; [11]) does the source give for “ISIS 370717: TAGCCACCAACT 1-10-1 MOE gapmer, phosphorothioate, SGLT-2 (sugars from the 5' end e1 d10 e1, all phosphorothioate, methylation of C not given here)” here?
The value was −55%.

What about the “% change in SGLT2 expression relative to saline” value (mouse SGLT2 mRNA [1]; [12]) of the same molecule?
The value was −70%.

And the “% change in SGLT2 expression relative to saline” value (rat SGLT2 mRNA [2]; 50 nmol/kg i.p. twice per week for three weeks)?
The value was −55%.

And the “% change in SGLT2 expression relative to saline” value (rat SGLT2 mRNA [2]; 150 nmol/kg i.p. twice per week for three weeks)?
The value was −70%.

And the “% change in SGLT2 expression relative to saline” value (rat SGLT2 mRNA [2]; 450 nmol/kg i.p. twice per week for three weeks)?
Its value is −70%.

What about the “% change in SGLT2 expression relative to saline” value (mouse SGLT2 mRNA [3]; 50 nmol/kg i.p. twice per week for two weeks) of the same molecule?
Its value is −47.5%.

What about the “% change in SGLT2 expression relative to saline” value (mouse SGLT2 mRNA [3]; 150 nmol/kg i.p. twice per week for two weeks) of the same molecule?
Its value is −55%.

And the “% change in SGLT2 expression relative to saline” value (mouse SGLT2 mRNA [3]; 450 nmol/kg i.p. twice per week for two weeks)?
The value was −65%.

What about the “% change in SGLT2 expression relative to saline” value (rat SGLT2 mRNA [4]) of the same molecule?
The value was −70%.

What does the source list for “ISIS 388625: TGTTCCAGCCCA 2-8-2 MOE Gapmer, SGLT2 (eT*eG*dT*dT*d[5mC]*d[5mC]*dA*dG*d[5mC]*d[5mC]*e[5mC]*eA)”?
% change in SGLT2 expression relative to saline (mouse SGLT2 mRNA [5]; 0.02 umol/kg i.p. twice per week for three weeks): −65%; % change in SGLT2 expression relative to saline (mouse SGLT2 mRNA [5]; [11]): −88%; % change in SGLT2 expression relative to saline (mouse SGLT2 mRNA [5]; [12]): −90%; SGLT2 mRNA, percent change relative to saline treated animals (mouse SGLT2 mRNA [6]; 5 nmol/kg i.p. twice per week for three weeks): −18%; SGLT2 mRNA, percent change relative to saline treated animals (mouse SGLT2 mRNA [6]; 25 nmol/kg i.p. twice per week for three weeks): −47%; SGLT2 mRNA, percent change relative to saline treated animals (mouse SGLT2 mRNA [6]; 125 nmol/kg i.p. twice per week for three weeks): −70%; % change in SGLT2 expression relative to saline (rat SGLT2 mRNA [7]; dose 3.125 umol/kg [sic] i.p. twice per week for three weeks): +25%; % change in SGLT2 expression relative to saline (rat SGLT2 mRNA [7]; dose 12.5 umol/kg [sic] i.p. twice per week for three weeks): −15%; % change in SGLT2 expression relative to saline (rat SGLT2 mRNA [7]; dose 50 umol/kg [sic] i.p. twice per week for three weeks): −65%; % change in SGLT2 expression relative to saline (rat SGLT2 mRNA [7]; dose 200 umol/kg [sic] i.p. twice per week for three weeks): −80%; Plasma glucose levels [8]: significantly reduced; HbA1C [9]: significantly reduced; reduction of SGLT2 mRNA (dog SGLT2 mRNA): greater than 80%; Peak plasma glucose levels decreased [10]: over 50%

Reference: patent US8372967B2, “Compounds and methods for modulating expression of GCCR” (Isis Pharmaceuticals, Inc., priority 2006, dated 2013)
